The nature of the data set: Example 2: pharmacokinetics of oral and intravenous buprenorphine hydrochloride under naltrexone blockade. The conditions noted are these: injection, equimolar to 0.3 mg buprenorphine base, over 15 min; n = 8.

With `CO[C@@]12CC[C@@]3(C[C@@H]1[C@](C)(O)C(C)(C)C)[C@H]1Cc4ccc(O)c5c4[C@@]3(CCN1CC1CC1)[C@H]2O5.Cl` [Buprenorphine i.v., Buprenorphine HCl], the “Buprenorphine Mean Cmax” value is reported as 4.26 ng/mL and the “Buprenorphine Mean Tmax” value stood at 20.2 min.

(Values after patent US12201629B2 (priority 2017, dated 2025).)
